{
  "source": "patent US20070225213A1",
  "about": "“Nucleic acid carriers for delivery of therapeutic agents” (priority 2006, published 2007)",
  "tested_on": "MCF7",
  "experiment": "Cell uptake by MTN fluorescence EX620/EM680 (Examples 10 and 13, EX051605)",
  "type": "cell-based, human",
  "conditions": "10% w/w loading in DNA",
  "experimental": "Materials: HSGDNA, MTN, ODNAS1116 (phosphorothioated, single stranded DNA, and Beta-cyclodextrin polymer (BCD-SBE, KKBIOMED Inc.) were previously prepared in water at 10 mg/ml, 1 mg/ml, 0.95 mg/ml, and 10 mg/ml respectively.\nProcedure: For NAC-MTN, combined 37 ul HSGDNA (herring genomic DNA, Promega Inc.), 1426 ul HBSS( Hank's buffered saline, Sigma-Aldrich), with 37 ul of MTN, followed by 1500 ul 2× DMEM media to give 3 ml final and 24 uM (24 micro-molar) MTN and 10% w/w drug loading of MTN. For NAC-MTN (AR1505) combined 62 ul of HSDNA (deg. herring sperm DNA, Sigma) with 2377 ul HBSS, 61.7 ul MTN, 2500 ul 2× media to give 5 ml final and 24 uM MTN and 10% w/w drug loading of MTN to HSDNA. […]\nPlate#1 Media was aspirated and cells treated with 100 ul of either NAC-MTN, CD-MTN, or MTN at 24 uM MTN final or 12.3 ug/ml MTN in all samples. Samples containing MTN were incubated 4 hours, removed, and fluorescence taken at EX620/EM680. […]\nSamples were incubated 4 hours, removed, and MTN fluorescence taken at EX620/EM680. […] Average MTN fluorescence was averaged from 6 wells. For each cell type, MTN fluorescence was highest in MTN treated cells, followed by CD-MTN, and lowest in NAC-MTN. […]\nPLATE#2: Dispensed 50 ul from source plate into plate #2 to give 150 ul final vol 4.1 ug/ml, 8 uMfinal per well, pre-read fluorescence w samples (bkgd) incubated 5 hr, removed, replaced w/ media, read fluor. […]",
  "data": [
    {"smiles": "O=C1c2c(O)ccc(O)c2C(=O)c2c(NCCNCCO)ccc(NCCNCCO)c21", "note": "[MTN, mitoxantrone]", "values": [
      {"measurement": "% reduction in fluorescence relative to MTN alone (MTN = 0%)", "setting": "Plate#1, 24 uM MTN, 4 hours", "value": 0, "unit": "%"},
      {"measurement": "% reduction in fluorescence relative to MTN alone (MTN = 0%)", "setting": "Plate#2, 8 uM MTN", "value": 0, "unit": "%"}
    ]}
  ]
}
